Laboratory results as given in ChEMBL document CHEMBL1201862, “PubChem BioAssay data set” (2004).
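Method: 48-hour compound exposure of cells in 96-well plates, five concentrations, linear interpolation of endpoints. The concentration for 50% growth inhibition is given as GI50.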 The source made the active and inactive calls. No stated cut-off is given here; in the data, active = GI50 up to about 1.1 µM and inactive = higher.

Tests used:
Experiment in all cases: growth of human tumour cells (NCI), 48 h
[1] = tested on: A498
[2] = tested on: ACHN
[3] = tested on: DMS-273
[4] = tested on: HCT-116
[5] = tested on: HCT-15
[6] = tested on: HOP-92
[7] = tested on: RXF 631
[8] = tested on: SN12C
[9] = tested on: SR
[10] = tested on: TK-10
[11] = tested on: 786-0
[12] = tested on: A549
[13] = tested on: CAKI-1
[14] = tested on: CCRF-CEM
[15] = tested on: COLO 205
[16] = tested on: DLD-1
[17] = tested on: DMS-114
[18] = tested on: EKVX
[19] = tested on: HCC 2998
[20] = tested on: HL-60
[21] = tested on: HOP-18
[22] = tested on: HOP-62
[23] = tested on: HT-29
[24] = tested on: K562
[25] = tested on: KM-20L2
[26] = tested on: KM12
[27] = tested on: LOX IMVI
[28] = tested on: LXFL 529
[29] = tested on: M14
[30] = tested on: MOLT-4
[31] = tested on: Malme-3M
[32] = tested on: NCI-H226
[33] = tested on: NCI-H23
[34] = tested on: NCI-H460
[35] = tested on: NCI-H522
[36] = tested on: OVCAR-3
[37] = tested on: OVCAR-4
[38] = tested on: OVCAR-5
[39] = tested on: OVCAR-8
[40] = tested on: RPMI-8226
[41] = tested on: RXF 393
[42] = tested on: SF-268
[43] = tested on: SF-295
[44] = tested on: SK-MEL-28
[45] = tested on: SK-MEL-2
[46] = tested on: SK-MEL-5
[47] = tested on: SNB-19
[48] = tested on: SNB-75
[49] = tested on: SNB-78
[50] = tested on: SW-620
[51] = tested on: U-251
[52] = tested on: UACC-257
[53] = tested on: UO-31
[54] = tested on: XF498
[55] = tested on: IGROV-1
[56] = tested on: M19-MEL
[57] = tested on: SF-539
[58] = tested on: SK-OV-3
[59] = tested on: UACC-62

O=C1[C@@H]2C(c3ccc(Br)cc3)=NO[C@@H]2C(=O)N1c1ccc(Cc2ccc(N3C(=O)[C@H]4C(c5ccc(Br)cc5)=NO[C@H]4C3=O)cc2)cc1
GI50 [1]: 0.0139 µM (active)
GI50 [2]: > 40 µM (inactive)
GI50 [3]: > 40 µM (inactive)
GI50 [4]: > 40 µM (inactive)
GI50 [5]: > 40 µM
GI50 [6]: > 40 µM (inactive)
GI50 [7]: > 40 µM (inactive)
GI50 [8]: > 40 µM (inactive)
GI50 [9]: 19.1 µM (inactive)
GI50 [10]: 16.9 µM (inactive)

CCOc1ccc(NC(=O)CCC(=O)NN)cc1
GI50 [11]: > 100 µM (inactive)
GI50 [12]: > 100 µM (inactive)
GI50 [2]: > 100 µM (inactive)
GI50 [13]: > 100 µM (inactive)
GI50 [14]: > 100 µM (inactive)
GI50 [15]: > 100 µM (inactive)
GI50 [16]: > 100 µM (inactive)
GI50 [17]: > 100 µM (inactive)
GI50 [3]: > 100 µM (inactive)
GI50 [18]: > 100 µM (inactive)
GI50 [19]: > 100 µM (inactive)
GI50 [5]: 68.7 µM
GI50 [20]: > 100 µM (inactive)
GI50 [21]: > 100 µM (inactive)
GI50 [22]: > 100 µM (inactive)
GI50 [6]: > 100 µM (inactive)
GI50 [23]: > 100 µM (inactive)
GI50 [24]: > 100 µM (inactive)
GI50 [25]: > 100 µM (inactive)
GI50 [26]: > 100 µM (inactive)
GI50 [27]: > 100 µM (inactive)
GI50 [28]: > 100 µM (inactive)
GI50 [29]: > 100 µM (inactive)
GI50 [30]: > 100 µM (inactive)
GI50 [31]: > 100 µM (inactive)
GI50 [32]: > 100 µM (inactive)
GI50 [33]: > 100 µM (inactive)
GI50 [34]: > 100 µM (inactive)
GI50 [35]: > 100 µM (inactive)
GI50 [36]: > 100 µM (inactive)
GI50 [37]: > 100 µM (inactive)
GI50 [38]: > 100 µM (inactive)
GI50 [39]: > 100 µM (inactive)
GI50 [40]: > 100 µM (inactive)
GI50 [41]: > 100 µM (inactive)
GI50 [42]: > 100 µM (inactive)
GI50 [43]: > 100 µM (inactive)
GI50 [44]: > 100 µM (inactive)
GI50 [45]: > 100 µM (inactive)
GI50 [46]: > 100 µM (inactive)
GI50 [8]: 94 µM (inactive)
GI50 [47]: > 100 µM (inactive)
GI50 [48]: > 100 µM (inactive)
GI50 [49]: > 100 µM (inactive)
GI50 [50]: > 100 µM (inactive)
GI50 [10]: > 100 µM (inactive)
GI50 [51]: > 100 µM (inactive)
GI50 [52]: > 100 µM (inactive)
GI50 [53]: > 100 µM (inactive)
GI50 [54]: 31.7 µM (inactive)

COC(=O)CCC(NC(=S)N/N=C(\C)c1ccc[nH]1)C(=O)OC (stereo not given)
GI50 [11]: > 100 µM (inactive)
GI50 [1]: > 100 µM (inactive)
GI50 [12]: > 100 µM (inactive)
GI50 [2]: > 100 µM (inactive)
GI50 [14]: > 100 µM (inactive)
GI50 [15]: > 100 µM (inactive)
GI50 [16]: > 100 µM (inactive)
GI50 [17]: > 100 µM (inactive)
GI50 [3]: > 100 µM (inactive)
GI50 [18]: > 100 µM (inactive)
GI50 [19]: > 100 µM (inactive)
GI50 [4]: > 100 µM (inactive)
GI50 [5]: > 100 µM
GI50 [20]: > 100 µM (inactive)
GI50 [21]: > 100 µM (inactive)
GI50 [22]: > 100 µM (inactive)
GI50 [6]: > 100 µM (inactive)
GI50 [23]: > 100 µM (inactive)
GI50 [55]: > 100 µM (inactive)
GI50 [24]: > 100 µM (inactive)
GI50 [25]: > 100 µM (inactive)
GI50 [26]: > 100 µM (inactive)
GI50 [27]: > 100 µM (inactive)
GI50 [28]: > 100 µM (inactive)
GI50 [29]: > 100 µM (inactive)
GI50 [56]: > 100 µM (inactive)
GI50 [30]: > 100 µM (inactive)
GI50 [31]: > 100 µM (inactive)
GI50 [32]: > 100 µM (inactive)
GI50 [33]: > 100 µM (inactive)
GI50 [34]: > 100 µM (inactive)
GI50 [35]: > 100 µM (inactive)
GI50 [36]: > 100 µM (inactive)
GI50 [37]: > 100 µM (inactive)
GI50 [38]: > 100 µM (inactive)
GI50 [39]: > 100 µM (inactive)
GI50 [41]: > 100 µM (inactive)
GI50 [42]: > 100 µM (inactive)
GI50 [43]: > 100 µM (inactive)
GI50 [57]: > 100 µM (inactive)
GI50 [44]: > 100 µM (inactive)
GI50 [45]: > 100 µM (inactive)
GI50 [46]: > 100 µM (inactive)
GI50 [58]: > 100 µM (inactive)
GI50 [8]: > 100 µM (inactive)
GI50 [47]: > 100 µM (inactive)
GI50 [48]: > 100 µM (inactive)
GI50 [49]: > 100 µM (inactive)
GI50 [50]: > 100 µM (inactive)
GI50 [10]: > 100 µM (inactive)
GI50 [51]: > 100 µM (inactive)
GI50 [52]: > 100 µM (inactive)
GI50 [59]: > 100 µM (inactive)
GI50 [53]: > 100 µM (inactive)
GI50 [54]: > 100 µM (inactive)
